The record followed here is PubChem BioAssay (NCI).

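Cells were grown in 96-well plates and exposed to each compound for 48 hours at five concentrations; endpoints were interpolated linearly between bracketing concentrations, or set to the highest concentration if not reached. TGI marks complete inhibition of growth.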 Some results are limits rather than exact numbers.

Assay in all cases: DTP human tumour cell line panel, 48 h
Assay [1] concerns LOX IMVI melanoma.
Assay [2] has as its system A549 NSCLC.
For assay [3], the system named is NCI-H522 lung.
In assay [4] the test system is UO-31 renal.
The test system of assay [5] is K-562 leukemia.
The subject of assay [6] is KM12 colon.
Assay [7] has as its system COLO 205 colon.
Assay [8] concerns TK-10 renal.

In general, TGI refers to the concentration at which net growth stops. `C#CCSC(C=C=C)P(=O)(OC(C)C)OC(C)C` (centres undefined): the TGI in assay [1] was > 100 µM; in assay [2] it was > 100 µM; in assay [3] it was 83.6 µM; in assay [4], > 100 µM; in assay [5], 68.4 µM; in assay [6], > 100 µM. The TGI in assay [7] and in assay [8] was > 100 µM each time.
Take `C/C(Nc1ccc(F)cc1)=C1/CCOC1=O`: the total growth inhibition concentration (TGI) in assay [1], in assay [2], in assay [3], in assay [4], in assay [5] and in assay [6] was > 100 µM each time. Also, the TGI was 47 µM in assay [7] and > 100 µM in assay [8].
As to `CN(C)c1nc2oc(-c3ccccc3)c(-c3ccccc3)c2c2nnnn12`, the TGI in assay [1], in assay [2], in assay [3], in assay [4], in assay [5] and in assay [6] was > 100 µM each time. The TGI in assay [7] and in assay [8] was > 100 µM throughout.
For the molecule `CC1(C)CC(C)(C)C1=NNC(N)=O`, the TGI in assay [1], in assay [2], in assay [3], in assay [4], in assay [5] and in assay [6] was > 100 µM throughout. The TGI in assay [7] and in assay [8] was > 100 µM in each case.
`O=c1ccn(CC2(CO)CC(Cc3ccccc3)C2)c(=O)[nH]1` (centres undefined): the total growth inhibition concentration (TGI) in assay [1], in assay [2], in assay [3], in assay [4], in assay [5] and in assay [6] was > 100 µM each time. Moreover, the TGI in assay [7] and in assay [8] was > 100 µM in each case.
`CC(C)C(OC(=O)c1ccc(NCc2cc(O)ccc2O)cc1)C(C)C`: the TGI turned out to be 2.31 µM in assay [1]; 20.7 µM in assay [2]; 0.391 µM in assay [3]; 2.42 µM in assay [4]; 4.12 µM in assay [5]; 11.1 µM in assay [6]. Also, the figures for the TGI in assay [7] and in assay [8] were 5.56 µM and 3.62 µM, respectively.
On to `COc1cc(/C=C2/C[C@H]3[C@@H]4CC=C5C[C@@H](OC(C)=O)CC[C@]5(C)[C@H]4CC[C@]3(C)NC2=O)cc(OC)c1OC`, for which the TGI in assay [1] was > 100 µM; in assay [2], 59.3 µM; in assay [3], 59.4 µM; in assay [4] it was 50.2 µM; in assay [5] it was > 100 µM; in assay [6], > 100 µM. Also, the TGI in assay [7] was > 100 µM; in assay [8] it was 83.3 µM.
Consider `C(CCCCc1nnc(N2CCCCC2)o1)CCCc1nnc(N2CCCCC2)o1`, for which the TGI in assay [1], in assay [2], in assay [3], in assay [4], in assay [5] and in assay [6] was > 100 µM in each case. Besides, the TGI in assay [7] and in assay [8] was > 100 µM each time.
As for `CN1CCN(CCCBr)CC1`, the TGI in assay [1], in assay [2], in assay [3], in assay [4], in assay [5] and in assay [6] was > 100 µM each time. Further, the TGI in assay [7] and in assay [8] was > 100 µM each time.
In the case of `CC1(C)[C@H]2CC[C@]1(C)[C@H](OC(=O)NNC(=O)O[C@@H]1C[C@@H]3CC[C@@]1(C)C3(C)C)C2`, the TGI in assay [1] is > 100 µM; in assay [2], 25.1 µM; in assay [3], 30.7 µM; in assay [4], 29.2 µM; in assay [5] it was 17 µM; in assay [6] it was 37.3 µM. For the same molecule, the TGI in assay [7] is 25.6 µM; in assay [8], 38.6 µM.
`CSC1=N/C(=C\c2ccco2)C(=O)N1CN1CCOCC1`: the TGI in assay [1], in assay [2], in assay [3], in assay [4], in assay [5] and in assay [6] was > 100 µM throughout. The TGI in assay [7] and in assay [8] was > 100 µM in each case.
On to `CCOC(=O)c1cc2c(C(=O)c3ccc([N+](=O)[O-])cc3)c(C(C)=O)ccc2[nH]1`, for which the TGI in assay [1] was > 100 µM; in assay [2], > 100 µM; in assay [3] it was 36.5 µM; in assay [4], > 100 µM; in assay [5], > 100 µM; in assay [6] it was > 100 µM. Moreover, the TGI in assay [7] and in assay [8] was > 100 µM each time.
With `O=c1oc2ccccc2cc1-c1cn2cc(Cl)ccc2n1`, the TGI was 18.7 µM in assay [1]; 16.8 µM in assay [2]; 0.722 µM in assay [3]; 6.79 µM in assay [4]; > 100 µM in assay [5]; 12.1 µM in assay [6]. Also, the TGI in assay [7] was > 50.3 µM; in assay [8] it was 22.3 µM.
For the molecule `C/C=C(/C)C(=O)O[C@H](C[C@@H](C)[C@H]1CC(c2ccoc2)OC1=O)[C@@]1(C)C(=O)CCC2O[C@]21C` (some centres undefined), the TGI in assay [1], in assay [2], in assay [3], in assay [4], in assay [5] and in assay [6] was > 100 µM in each case. For the same molecule, the TGI in assay [7] and in assay [8] was > 100 µM in each case.
Turning to `Cc1c2c(n(CCc3ccc(Cl)cc3)c1C)NC(c1ccccc1)C(C#N)S2(=O)=O` (centres undefined), the TGI in assay [1] is > 75 µM; in assay [2], > 100 µM; in assay [3] it was > 100 µM; in assay [4], > 100 µM; in assay [5], 47.8 µM; in assay [6], > 100 µM. In addition, the values for the TGI in assay [7] and in assay [8] were > 71.4 µM and > 100 µM, respectively.
In the case of `CCOC(=O)c1cc2c3c(c(C(C)=O)c(O)c2[nH]1)N(CC(C)CC)CC3` (centres undefined), the TGI in assay [1], in assay [2], in assay [3], in assay [4], in assay [5] and in assay [6] was > 100 µM in each case. Further, the TGI in assay [7] and in assay [8] was > 100 µM throughout.
For the molecule `C=C(CO[Si](C)(C)C(C)(C)C)C(C)=O`, the TGI was 24.7 µM in assay [1]; > 100 µM in assay [2]; 17.3 µM in assay [3]; > 66 µM in assay [4]; > 52.4 µM in assay [5]; > 100 µM in assay [6]. Further, the TGI is > 71 µM in assay [7] and > 100 µM in assay [8].
As to `O=C1/C(=N\S(=O)(=O)c2ccccc2)C([n+]2ccc(Cc3ccccc3)cc2)=C([O-])c2ccccc21`, the TGI in assay [1] is 1.83 µM; in assay [2] it was 3.74 µM; in assay [3], 2.11 µM; in assay [4], 4.62 µM; in assay [5], > 100 µM; in assay [6], 4.7 µM. The TGI was determined as 1.14 µM in assay [7] and 6.2 µM in assay [8].
Turning to `Oc1c([Si](c2ccccc2)(c2ccccc2)c2ccccc2)cc2ccccc2c1-c1c(O)c([Si](c2ccccc2)(c2ccccc2)c2ccccc2)cc2ccccc12`, the TGI in assay [1], in assay [2], in assay [3], in assay [4], in assay [5] and in assay [6] was > 100 µM each time. For the same molecule, the TGI in assay [7] and in assay [8] was > 100 µM in each case.
For the molecule `CCN(C(=S)N[C@H](C(=O)N[C@@H](C)C(=O)OC)C(C)C)c1ccccc1`, the TGI in assay [1] was > 100 µM; in assay [2], > 100 µM; in assay [3], > 100 µM; in assay [4], > 100 µM; in assay [5], 80.2 µM; in assay [6], > 100 µM. Also, the TGI in assay [7] and in assay [8] was > 100 µM in each case.
Turning to `CCOC(=O)c1c(N2CCCC2)ncn(Cc2ccccc2)c1=S`, the TGI in assay [1], in assay [2], in assay [3], in assay [4], in assay [5] and in assay [6] was > 100 µM in each case. For the same molecule, the TGI in assay [7] and in assay [8] was > 100 µM in each case.
Regarding `O=C(Nc1ccccc1)N(CCCCN(Cc1ccccc1)C(=O)Nc1ccccc1)Cc1ccccc1`, the TGI in assay [1], in assay [2], in assay [3], in assay [4], in assay [5] and in assay [6] was > 100 µM each time. In addition, the TGI in assay [7] and in assay [8] was > 100 µM each time.
Consider `Cc1c(NC(=O)CSC(=S)N2CCN(Cc3ccccc3)CC2)c(=O)n(-c2ccccc2)n1C`, for which the TGI in assay [1], in assay [2], in assay [3], in assay [4], in assay [5] and in assay [6] was > 100 µM each time. Besides, the TGI in assay [7] and in assay [8] was > 100 µM each time.
